# Laboratory results reported in US12421212B2, “Substituted benzenecarboxamides as IL-17A modulators” (DiCE Alpha, Inc., priority 2019, dated 2025).
# Target: T1, IL-17A/A (Homo sapiens, UniProt Q16552)
# T1 construct: purchased Genscript Z03228
# T1 sequence (Q16552 24-155): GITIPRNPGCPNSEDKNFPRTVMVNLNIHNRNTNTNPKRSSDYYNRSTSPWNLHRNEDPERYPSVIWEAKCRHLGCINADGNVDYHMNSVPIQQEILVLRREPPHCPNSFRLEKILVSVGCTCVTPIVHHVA
# Experiment: IL-17A/A HEK-Blue Cell Assay
# Format: cell-based
# Settings: not given
row,Structure (SMILES),IC50 [nM]
1,CCc1nonc1C(=O)N[C@H](C(=O)Nc1ccc([C@H](C)[C@@H](NC(=O)CF)C(=O)N2CCN(C)[C@@H](C)C2)cc1F)[C@H]1CC[C@H](C)CC1 [Compound 510],10 to 100

# Same assay, conditions: HEK-Blue IL-17A reporter cell line, SEAP readout at A630, 20 hours incubation with IL-17A/A; top concentration 10 uM, 1 uM or 0.3 uM
row,Structure (SMILES),IL-17A/A inhibition (pIC50)
1,CCc1nonc1C(=O)N[C@H](C(=O)Nc1ccc([C@H](C)[C@@H](NC(C)=O)C(=O)N2CCN(C)[C@@H](C)C2)cc1F)[C@H]1CC[C@H](C)CC1 [Compound 511],A (compounds having a pIC50 of greater than or equal 8 as A)
2,CCc1nonc1C(=O)N[C@H](C(=O)Nc1ccc([C@H](C)[C@@H](NC(=O)C(F)F)C(=O)N2CCN(C)[C@@H](C)C2)cc1F)[C@H]1CC[C@H](C)CC1 [Compound 512],B (8>B≥7 as B)
3,CCC(=O)N[C@@H](C(=O)N1CCN(C)CC1)[C@@H](C)c1ccc(NC(=O)C(NC(=O)c2ccnn2CC)C(C)c2ccccc2Cl)c(F)c1 (stereo partly drawn) [Compound 519],"X3a (compounds were evaluated up to 0.3 uM and did not inhibit activity by >80%, however they showed some activity at 0.3 uM (less than 80% and more than 20%))"
4,CCC(=O)N[C@@H](C(=O)N1CCN(C)CC1)[C@@H](C)c1ccc(NC(=O)C(NC(=O)c2ccnn2CC)C(C)c2ccccc2Cl)c(F)c1 (stereo partly drawn) [Compound 520],X1b (compounds were evaluated up to 10 uM and inhibited activity at 10 uM by less than 20%)
5,CCC(=O)N[C@@H](C(=O)N1CCN(C)CC1)[C@@H](C)c1ccc(NC(=O)C(NC(=O)c2nonc2CC)C(C)c2ccccc2Cl)c(F)c1 (stereo partly drawn) [Compound 522],X1b (compounds were evaluated up to 10 uM and inhibited activity at 10 uM by less than 20%)
6,CCC(=O)N[C@H](Cc1ccc(NC(=O)[C@@H](Nc2nccn3nccc23)C2CCCCC2)c(F)c1)C(=O)N1CCN(C)CC1 [Compound 540],X2b (compounds were evaluated up to 1 uM and inhibited activity at 1 uM by less than 20%)

# Same assay, conditions: HEK-Blue IL-17A reporter cell line, SEAP readout at A630, 20 hours incubation with IL-17A/A; top concentration 10 uM, 1 uM or 0.3 uM; read-out: IL-17A/A inhibition (pIC50) (converted)
row,Structure (SMILES),IC50 [nM]
1,CCc1nonc1C(=O)N[C@H](C(=O)Nc1ccc([C@H](C)[C@@H](NC(=O)[C@H](C)F)C(=O)N2CCN(C)CC2)cc1F)[C@H]1CC[C@H](C)CC1 [Compound 491],10 to 100
2,CCc1nonc1C(=O)N[C@H](C(=O)Nc1ccc([C@H](C)[C@@H](NC(=O)CC2CC2)C(=O)N2CCN(C)CC2)cc1F)[C@H]1CC[C@H](C)CC1 [Compound 492],< 10
3,CCc1nonc1C(=O)N[C@H](C(=O)Nc1ccc([C@H](C)[C@@H](NC(=O)[C@H](C)CC(=O)O)C(=O)N2CCN(C)CC2)cc1F)[C@H]1CC[C@H](C)CC1 [Compound 493],10 to 100
4,CCc1nonc1C(=O)N[C@H](C(=O)Nc1ccc([C@H](C)[C@@H](NC(=O)C(C)C)C(=O)N2CCN(C)CC2)cc1F)[C@H]1CC[C@H](C)CC1 [Compound 494],< 10
5,CCc1nonc1C(=O)N[C@H](C(=O)Nc1ccc([C@H](C)[C@@H](NC(=O)C(C)(C)F)C(=O)N2CCN(C)CC2)cc1F)[C@H]1CC[C@H](C)CC1 [Compound 495],10 to 100
6,CCc1nonc1C(=O)N[C@H](C(=O)Nc1ccc([C@H](C)[C@@H](NC(=O)[C@H](C)OC)C(=O)N2CCN(C)CC2)cc1F)[C@H]1CC[C@H](C)CC1 [Compound 497],< 10
7,CCc1nonc1C(=O)N[C@H](C(=O)Nc1ccc([C@H](C)[C@@H](NC(=O)[C@@H]2CCCO2)C(=O)N2CCN(C)CC2)cc1F)[C@H]1CC[C@H](C)CC1 [Compound 498],10 to 100
8,CCc1nonc1C(=O)N[C@H](C(=O)Nc1ccc([C@H](C)[C@@H](NC(=O)COC)C(=O)N2CCN(C)CC2)cc1F)[C@H]1CC[C@H](C)CC1 [Compound 499],< 10
9,CCc1nonc1C(=O)N[C@H](C(=O)Nc1ccc([C@H](C)[C@@H](NC(=O)[C@@H](C)F)C(=O)N2CCN(C)CC2)cc1F)[C@H]1CC[C@H](C)CC1 [Compound 500],< 10
10,CCc1nonc1C(=O)N[C@H](C(=O)Nc1ccc([C@H](C)[C@@H](NC(=O)C(C)(F)F)C(=O)N2CCN(C)CC2)cc1F)[C@H]1CC[C@H](C)CC1 [Compound 501],10 to 100
11,CCc1nonc1C(=O)N[C@H](C(=O)Nc1ccc([C@H](C)[C@@H](NC(=O)C(C)(F)F)C(=O)N2CCN(C)[C@H](C)C2)cc1F)[C@H]1CC[C@H](C)CC1 [Compound 503],10 to 100
12,CCc1nonc1C(=O)N[C@H](C(=O)Nc1ccc([C@H](C)[C@@H](NC(=O)C(F)(F)CC)C(=O)N2CCN(C)[C@H](C)C2)cc1F)[C@H]1CC[C@H](C)CC1 [Compound 504],< 10
13,CCc1nonc1C(=O)N[C@H](C(=O)Nc1ccc([C@H](C)[C@@H](NC(=O)C2(F)CCC2)C(=O)N2CCN(C)[C@H](C)C2)cc1F)[C@H]1CC[C@H](C)CC1 [Compound 505],10 to 100
14,CCc1nonc1C(=O)N[C@H](C(=O)Nc1ccc([C@H](C)[C@@H](NC(=O)CC2CC2)C(=O)N2CCN(C)[C@@H](C)C2)cc1F)[C@H]1CC[C@H](C)CC1 [Compound 506],< 10
15,CCc1nonc1C(=O)N[C@H](C(=O)Nc1ccc([C@H](C)[C@@H](NC(=O)N(C)C2CC2)C(=O)N2CCN(C)[C@H](C)C2)cc1F)[C@H]1CC[C@H](C)CC1 [Compound 508],< 10
16,CCc1nonc1C(=O)N[C@H](C(=O)Nc1ccc([C@H](C)[C@@H](NC(=O)N(C)C2CC2)C(=O)N2CCN(C)[C@@H](C)C2)cc1F)[C@H]1CC[C@H](C)CC1 [Compound 509],10 to 100
17,CCc1nonc1C(=O)N[C@H](C(=O)Nc1ccc([C@H](C)[C@@H](NC(=O)N(C)C2CC2)C(=O)N2CCN(C)CC2)cc1F)[C@H]1CC[C@H](C)CC1 [Compound 513],< 10
18,CCc1nonc1C(=O)N[C@H](C(=O)Nc1ccc([C@H](C)[C@@H](NC(=O)N(C)C)C(=O)N2CCN(C)CC2)cc1F)[C@H]1CC[C@H](C)CC1 [Compound 514],< 10
19,CCc1nonc1C(=O)N[C@H](C(=O)Nc1ccc([C@H](C)[C@@H](NC(=O)N2CCCC2)C(=O)N2CCN(C)CC2)cc1F)[C@H]1CC[C@H](C)CC1 [Compound 515],10 to 100

row,Structure (SMILES),IC50 [nM]
1,CCc1nonc1C(=O)N[C@H](C(=O)Nc1ccc([C@H](C)[C@@H](NC(=O)N(C)C2CCC2)C(=O)N2CCN(C)CC2)cc1F)[C@H]1CC[C@H](C)CC1 [Compound 516],< 10
2,CCc1nonc1C(=O)N[C@H](C(=O)Nc1ccc([C@H](C)[C@@H](NC(=O)NC2CC2)C(=O)N2CCN(C)CC2)cc1F)[C@H]1CC[C@H](C)CC1 [Compound 517],< 10
3,CCc1nonc1C(=O)N[C@H](C(=O)Nc1ccc([C@H](C)[C@@H](NS(=O)(=O)CC)C(=O)N2CCN(C)CC2)cc1F)[C@H]1CC[C@H](C)CC1 [Compound 518],10 to 100
4,CCC(=O)N[C@@H](C(=O)N1CCN(C)CC1)[C@@H](C)c1ccc(NC(=O)C(NC(=O)c2nonc2CC)C(C)c2ccccc2Cl)c(F)c1 (stereo partly drawn) [Compound 521],100 to 10000
5,CCC(=O)N[C@@H](C(=O)N1CCN(C)CC1)[C@@H](C)c1ccc(NC(=O)[C@@H](NC(=O)C(F)(F)c2cnn(CC)c2)[C@H]2CC[C@H](C)CC2)c(F)c1 [Compound 523],< 10
6,CCC(=O)N[C@@H](C(=O)N1CCN(C)CC1)[C@@H](C)c1ccc(NC(=O)[C@@H](NC(=O)c2occc2CC)[C@H]2CC[C@H](C)CC2)c(F)c1 [Compound 524],10 to 100
7,CCn1nnnc1C(=O)N[C@H](C(=O)Nc1ccc([C@H](C)[C@@H](NC(=O)c2cnns2)C(=O)N2CCN(C)CC2)cc1F)[C@H]1CC[C@H](C)CC1 [Compound 525],10 to 100
8,C[C@@H](c1ccc(NC(=O)[C@@H](NC(=O)c2coc3ccncc23)[C@H]2CC[C@H](C)CC2)c(F)c1)[C@@H](NC(=O)c1cnns1)C(=O)N1CCN(C)CC1 [Compound 526],10 to 100
9,CCC(=O)N[C@@H](C(=O)N1CCN(C)CC1)[C@@H](C)c1ccc(NC(=O)[C@@H](NC(=O)c2nnnn2CC)[C@H]2CC[C@H](C)CC2)c(F)c1 [Compound 527],10 to 100
10,CCC(=O)N[C@@H](C(=O)N1CCN(C)CC1)[C@@H](C)c1ccc(NC(=O)[C@@H](NC(=O)C(F)(F)c2cncc(C#N)c2)[C@H]2CC[C@H](C)CC2)c(F)c1 [Compound 530],< 10
11,CCC(=O)N[C@@H](C(=O)N1CCC(O)CC1)[C@@H](C)c1ccc(NC(=O)[C@@H](NC(=O)c2cnn(C3CCCC3)c2)[C@H]2CC[C@H](C)CC2)c(F)c1 [Compound 531],10 to 100
12,CCC(=O)N[C@@H](C(=O)N1CCN(Cc2ccccc2)CC1)[C@@H](C)c1ccc(NC(=O)[C@@H](NC(=O)C(F)(F)c2cncc(OC)c2)[C@H]2CC[C@H](C)CC2)c(F)c1 [Compound 532],10 to 100
13,CCC(=O)N[C@@H](C(=O)N1CCC(C)(O)CC1)[C@@H](C)c1ccc(NC(=O)[C@@H](NC(=O)C(F)(F)c2cnn(CC)c2)[C@H]2CC[C@H](C)CC2)c(F)c1 [Compound 533],< 10
14,CCC(=O)N[C@@H](C(=O)N1CCC(F)(F)CC1)[C@@H](C)c1ccc(NC(=O)[C@@H](NC(=O)c2conc2C(C)(C)N)[C@H]2CC[C@H](C)CC2)c(F)c1 [Compound 534],10 to 100
15,CCn1nccc1C(=O)N[C@H](C(=O)Nc1ccc([C@H](C)[C@@H](NC(=O)C2CC2)C(=O)N2CCN(C)CC2)cc1F)C1CCCCCC1 [Compound 535],< 10
16,C[C@@H](c1ccc(NC(=O)[C@@H](NC(=O)C(F)(F)C2CC2)C2CCCCCC2)c(F)c1)[C@@H](NC(=O)c1cnns1)C(=O)N1CCN(C)CC1 [Compound 536],10 to 100
17,CCC(=O)N[C@@H](C(=O)N[C@@H](C)C1CC1)[C@@H](C)c1ccc(NC(=O)[C@@H](NC(=O)c2ccnn2CC)C2CCCCCC2)c(F)c1 [Compound 537],10 to 100
18,CCC(=O)N[C@@H](C(=O)NCC1CCC1)[C@@H](C)c1ccc(NC(=O)[C@@H](NC(=O)c2ccnn2CC)C2CCCCCC2)c(F)c1 [Compound 538],< 10
19,[2H]C([2H])([2H])N1CCN(C(=O)[C@H](NC(=O)CC)[C@@H](C)c2ccc(NC(=O)[C@@H](NC(=O)c3ccnn3CC)[C@H]3CC[C@H](C)CC3)c(F)c2)CC1 [Compound 539],< 10
